Measurements from ChEMBL document CHEMBL1135459, “Novel class of potent 4-arylalkyl substituted 3-isoxazolol GABA(A) antagonists: synthesis, pharmacology, and molecular modeling” (J Med Chem, 2002).

Legend:
[1] = target: Gamma-aminobutyric acid type B receptor subunit 1 (Rattus norvegicus, UniProt Q9Z0U4); test: Affinity for GABA-B receptor by inhibiting GABA uptake into rat brain synaptosomes; type: subcellular
[2] = species on record: Mus musculus; test: Electrophysiology using Whole-cell patch-clamp recordings in mouse embryos; type: functional, organism-based
[3] = target: GABA-A receptor; anion channel; test: Affinity for GABA-A receptor alpha by inhibiting binding of [3H]muscimol to rat brain synaptosomes; type: subcellular
[4] = test system: Mus musculus; test: Convulsant effect in mice after intracerebroventricular (icv) administration; type: functional; settings: central
[5] = test system: Mus musculus; test: Convulsant effect in mice after subcutaneous (sc) administration; type: functional

Gamma-aminobutyric acid type B receptor subunit 1, sequence (Q9Z0U4 whole entry): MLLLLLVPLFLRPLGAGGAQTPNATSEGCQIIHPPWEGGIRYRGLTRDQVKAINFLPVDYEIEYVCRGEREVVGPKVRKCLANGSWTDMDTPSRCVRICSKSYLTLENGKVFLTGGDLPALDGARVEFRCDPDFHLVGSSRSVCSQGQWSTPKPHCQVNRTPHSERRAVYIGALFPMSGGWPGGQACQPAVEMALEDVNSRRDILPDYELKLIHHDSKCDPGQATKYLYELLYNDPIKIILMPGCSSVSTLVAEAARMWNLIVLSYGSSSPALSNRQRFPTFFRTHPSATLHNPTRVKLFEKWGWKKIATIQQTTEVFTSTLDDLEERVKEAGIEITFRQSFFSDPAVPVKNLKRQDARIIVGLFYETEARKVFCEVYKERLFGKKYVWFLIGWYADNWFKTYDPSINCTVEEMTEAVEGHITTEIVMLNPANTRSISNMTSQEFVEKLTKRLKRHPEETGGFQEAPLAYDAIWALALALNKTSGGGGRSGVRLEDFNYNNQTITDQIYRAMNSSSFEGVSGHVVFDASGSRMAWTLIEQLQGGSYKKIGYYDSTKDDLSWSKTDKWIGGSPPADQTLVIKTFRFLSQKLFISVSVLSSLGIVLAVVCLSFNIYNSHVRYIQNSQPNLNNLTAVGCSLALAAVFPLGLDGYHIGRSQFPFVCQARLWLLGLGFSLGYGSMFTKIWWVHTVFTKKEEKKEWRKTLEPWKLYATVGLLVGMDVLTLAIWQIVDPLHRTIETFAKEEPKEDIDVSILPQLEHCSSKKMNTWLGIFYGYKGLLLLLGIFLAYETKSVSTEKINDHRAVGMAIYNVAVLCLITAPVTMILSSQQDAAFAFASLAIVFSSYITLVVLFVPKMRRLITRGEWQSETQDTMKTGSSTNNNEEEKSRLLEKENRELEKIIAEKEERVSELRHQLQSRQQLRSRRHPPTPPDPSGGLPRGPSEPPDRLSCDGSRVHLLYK

SMILES	IC50 [1] [µM]	IC50 [2] [nM]	Ki [3] [nM]	ED50 [4] [µmol/kg]	ED50 [5] [µmol/kg]
Oc1noc(C2CCNCC2)c1Cc1cccc2ccccc12	> 10	480	100	–	–
Oc1noc(C2CCNCC2)c1CCc1ccccc1	> 10	4100	5000	–	–
Oc1noc(C2CCNCC2)c1CCCC(c1ccccc1)c1ccccc1	> 100	50	700	–	–
CCCCCCc1c(O)noc1C1CCNCC1	> 100	1100	4500	–	–
CCCCc1c(O)noc1C1CCNCC1	> 100	3000	–	–	–
Oc1noc(C2CCNCC2)c1Cc1ccccc1	> 100	4000	–	–	–
Oc1noc(C2CCNCC2)c1Cc1ccc(-c2ccccc2)cc1	> 10	710	400	–	–
CCCc1c(O)noc1C1CCNCC1	> 100	4600	6600	–	–
Oc1noc(C2CCNCC2)c1CCc1ccc2ccccc2c1	> 10	890	–	–	–
Oc1noc(C2CCNCC2)c1CCc1cccc2ccccc12	> 10	1500	1700	–	–
CC1(c2cc(O)no2)CCNCC1	> 100	–	37000	–	–
Oc1noc(C2CCNCC2)c1CC(c1ccccc1)c1ccccc1	> 100	810	360	–	–
Oc1noc(C2CCNCC2)c1Cc1c2ccccc2cc2ccccc12	> 10	1300	–	–	–
Oc1noc(C2CCNCC2)c1CC1CCCCC1	> 100	1100	4900	–	–
Oc1noc(C2CCNCC2)c1CCCc1ccccc1	> 100	530	1100	–	–
Oc1noc(C2CCNCC2)c1CCC(c1ccccc1)c1ccccc1	> 10	20	68	0.21	> 45
Oc1noc(C2CCNCC2)c1Cc1ccc2ccccc2c1	> 10	370	–	0.024	> 51
CCc1c(O)noc1C1CCNCC1	> 100	10300	–	–	–
Oc1noc(C2CCNCC2)c1C(c1ccccc1)c1ccccc1	> 10	780	960	–	–
Cc1c(O)noc1C1CCNCC1	> 100	26000	–	–	–
CCCCCCCCc1c(O)noc1C1CCNCC1	> 100	440	1800	–	–
